What was measured:
Assay type in all cases: in vivo
[1] = system: Echinochloa oryzacola Vasing.; assay: Test Example 1: herbicidal activity, application before weed generation in submerged conditions (symbol A); settings: application herbicide amount 320 g/ha
Method in brief: (§1)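 0–5 visual score, 3 wk post-application. Submerged pots, alluvial soil, water 4 cm; seeds sown mixed, rice at 2.5 leaves transplanted. Emulsion diluted to predetermined dose, applied to water surface at sowing. 25–30 °C greenhouse.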

[2] = system: Scirpus juncoides; assay: Test Example 1: herbicidal activity, application before weed generation in submerged conditions (symbol B); settings: application herbicide amount 320 g/ha
Method in brief: as §1

[3] = system: Monochoria vaginalis; assay: Test Example 1: herbicidal activity, application before weed generation in submerged conditions (symbol C); settings: application herbicide amount 320 g/ha
Method in brief: as §1

[4] = system: transplanted rice plant; assay: Test Example 1: effect on crop, application before weed generation in submerged conditions (symbol a); settings: application herbicide amount 320 g/ha
Method in brief: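 Alluvial soil pots flooded to 4 cm water, sown with Echinochloa oryzacola, Scirpus juncoides and Monochoria vaginalis, then transplanted with 2.5 leaf stage rice seedlings; pre-emergence application. Greenhouse 25° C. to 30° C.; scored 0–5 by herbicidal ratio 3 weeks after application.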

[5] = system: Echinochloa crus-galli var. crus-galli; assay: Test Example 3: herbicidal effect by foliage application, Wagner pot (symbol H); settings: application herbicide amount 320 g/ha
Method in brief: (§2)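 In a shallow-flooded alluvial soil system held at 25–30 °C, plants including rice grew for 14 days and were then sprayed over the foliage with emulsion diluted to a fixed herbicide amount. Visual rating followed at 3 weeks.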

[6] = system: Leptochloa chinensis; assay: Test Example 3: herbicidal effect by foliage application, Wagner pot (symbol D); settings: application herbicide amount 320 g/ha
Method in brief: as §2

[7] = system: Cyperus difformis; assay: Test Example 3: herbicidal effect by foliage application, Wagner pot (symbol E); settings: application herbicide amount 320 g/ha
Method in brief: as §2

[8] = system: directly sowed rice plant; assay: Test Example 3: effect on crop by foliage application, Wagner pot (symbol b); settings: application herbicide amount 320 g/ha
Method in brief: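 Wagner pot (1/10000 are), alluvial soil, submerged 0.1–0.5 cm; sown E. crus-galli var. crus-galli, L. chinensis, C. difformis, rice; greenhouse 25–30 °C.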

[9] = system: Digitaria ciliaris; assay: Test Example 5: herbicidal effect by foliage application, plastic box (symbol F); settings: 320 g/ha, 3 weeks after application
Method in brief: (§3)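 Visual herbicidal score, taken three weeks post-application, of seedlings sprayed on the foliage with water-diluted emulsion at a predetermined amount; plants were 14 days old, greenhouse-raised at 25° C. to 30° C.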

[10] = system: Setaria viridis; assay: Test Example 5: herbicidal effect by foliage application, plastic box (symbol G); settings: 320 g/ha, 3 weeks after application
Method in brief: as §3

[11] = system: Echinochloa crus-galli var. crus-galli; assay: Test Example 5: herbicidal effect by foliage application, plastic box (symbol H); settings: 320 g/ha, 3 weeks after application
Method in brief: as §3

[12] = system: Avena fatua; assay: Test Example 5: herbicidal effect by foliage application, plastic box (symbol I); settings: 320 g/ha, 3 weeks after application
Method in brief: as §3

[13] = system: Alopecurus myosuroides; assay: Test Example 5: herbicidal effect by foliage application, plastic box (symbol J); settings: 320 g/ha, 3 weeks after application
Method in brief: as §3

[14] = system: Lolium multiflorum Lam.; assay: Test Example 5: herbicidal effect by foliage application, plastic box (symbol K); settings: 320 g/ha, 3 weeks after application
Method in brief: as §3

[15] = system: Apera spica-venti; assay: Test Example 5: herbicidal effect by foliage application, plastic box (symbol L); settings: 320 g/ha, 3 weeks after application
Method in brief: as §3

[16] = system: Abutilon theophrasti; assay: Test Example 5: herbicidal effect by foliage application, plastic box (symbol M); settings: 320 g/ha, 3 weeks after application
Method in brief: as §3

[17] = system: Amaranthus retroflexus; assay: Test Example 5: herbicidal effect by foliage application, plastic box (symbol N); settings: 320 g/ha, 3 weeks after application
Method in brief: as §3

[18] = system: Chenopodium album; assay: Test Example 5: herbicidal effect by foliage application, plastic box (symbol O); settings: 320 g/ha, 3 weeks after application
Method in brief: as §3

[19] = system: Stellaria media; assay: Test Example 5: herbicidal effect by foliage application, plastic box (symbol P); settings: 320 g/ha, 3 weeks after application
Method in brief: as §3

[20] = system: Galium spurium; assay: Test Example 5: herbicidal effect by foliage application, plastic box (symbol Q); settings: 320 g/ha, 3 weeks after application
Method in brief: as §3

[21] = system: Veronica persica; assay: Test Example 5: herbicidal effect by foliage application, plastic box (symbol R); settings: 320 g/ha, 3 weeks after application
Method in brief: as §3

[22] = system: corn; assay: Test Example 5: effect on crop by foliage application, plastic box (symbol c); settings: 320 g/ha, 3 weeks after application
Method in brief: (§4)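 Foliage-application test plants come from spot sowing in sterilized diluvial soil under a soil layer of about 1.5 cm, grown at 25° C. to 30° C. in a greenhouse.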

[23] = system: soybean; assay: Test Example 5: effect on crop by foliage application, plastic box (symbol d); settings: 320 g/ha, 3 weeks after application
Method in brief: as §4

[24] = system: rice plant; assay: Test Example 5: effect on crop by foliage application, plastic box (symbol b); settings: 320 g/ha, 3 weeks after application
Method in brief: as §4

[25] = system: wheat; assay: Test Example 5: effect on crop by foliage application, plastic box (symbol e); settings: 320 g/ha, 3 weeks after application
Method in brief: as §4

[26] = system: beet; assay: Test Example 5: effect on crop by foliage application, plastic box (symbol f); settings: 320 g/ha, 3 weeks after application
Method in brief: as §4

[27] = system: rapeseed; assay: Test Example 5: effect on crop by foliage application, plastic box (symbol g); settings: 320 g/ha, 3 weeks after application
Method in brief: as §4

CCCC=Cc1cc(C)c(C2=C(O)CC(CC(C)=O)C2=O)c(C)c1 (stereo not drawn) [7-022]
Herbicidal effect grade, A: Echinochloa oryzacola Vasing. [1]: 4 (Herbicidal ratio of 70% or higher and lower than 90%) | Herbicidal effect grade, B: Scirpus juncoides [2]: 2 (Herbicidal ratio of 20% or higher and lower than 40%) | Herbicidal effect grade, C: Monochoria vaginalis [3]: 3 (Herbicidal ratio of 40% or higher and lower than 70%) | Effect grade on crop, a: transplanted rice plant [4]: 3 (Herbicidal ratio of 40% or higher and lower than 70%) | herbicidal effect on H (Echinochloa crus-galli var. crus-galli), grade 0-5 [5]: 0 (Herbicidal ratio of 5% or lower (almost no effect)) | herbicidal effect on D (Leptochloa chinensis), grade 0-5 [6]: 4 (Herbicidal ratio of 70% or higher and lower than 90%) | herbicidal effect on E, grade 0-5 [7]: 0 (Herbicidal ratio of 5% or lower (almost no effect)) | effect on crop b (directly sowed rice plant), grade 0-5 [8]: 0 (Herbicidal ratio of 5% or lower (almost no effect)) | F: Digitaria ciliaris, herbicidal effect (criteria of Test Example 1) [9]: 0 (Herbicidal ratio of 5% or lower (almost no effect)) | G: Setaria viridis, herbicidal effect (criteria of Test Example 1) [10]: 0 (Herbicidal ratio of 5% or lower (almost no effect)) | H: Echinochloa crus-galli var. crus-galli, herbicidal effect (criteria of Test Example 1) [11]: 1 (Herbicidal ratio of 5% or higher and lower than 20%) | I: Avena fatua, herbicidal effect (criteria of Test Example 1) [12]: 0 (Herbicidal ratio of 5% or lower (almost no effect)) | J: Alopecurus myosuroides, herbicidal effect (criteria of Test Example 1) [13]: 0 (Herbicidal ratio of 5% or lower (almost no effect)) | K: Lolium multiflorum Lam., herbicidal effect (criteria of Test Example 1) [14]: 2 (Herbicidal ratio of 20% or higher and lower than 40%) | L: Apera spica-venti, herbicidal effect (criteria of Test Example 1) [15]: 0 (Herbicidal ratio of 5% or lower (almost no effect)) | M: Abutilon theophrasti, herbicidal effect (criteria of Test Example 1) [16]: 0 (Herbicidal ratio of 5% or lower (almost no effect)) | N: Amaranthus retroflexus, herbicidal effect (criteria of Test Example 1) [17]: 0 (Herbicidal ratio of 5% or lower (almost no effect)) | O: Chenopodium album, herbicidal effect (criteria of Test Example 1) [18]: 0 (Herbicidal ratio of 5% or lower (almost no effect)) | P: Stellaria media, herbicidal effect (criteria of Test Example 1) [19]: 0 (Herbicidal ratio of 5% or lower (almost no effect)) | Q: Galium spurium, herbicidal effect (criteria of Test Example 1) [20]: 0 (Herbicidal ratio of 5% or lower (almost no effect)) | R: Veronica persica, herbicidal effect (criteria of Test Example 1) [21]: 0 (Herbicidal ratio of 5% or lower (almost no effect)) | c: corn, effect on crop (criteria of Test Example 1) [22]: 0 (Herbicidal ratio of 5% or lower (almost no effect)) | d: soybean, effect on crop (criteria of Test Example 1) [23]: 0 (Herbicidal ratio of 5% or lower (almost no effect)) | b: directly sowed rice plant, effect on crop (criteria of Test Example 1) [24]: 0 (Herbicidal ratio of 5% or lower (almost no effect)) | e: wheat, effect on crop (criteria of Test Example 1) [25]: 0 (Herbicidal ratio of 5% or lower (almost no effect)) | f: beet, effect on crop (criteria of Test Example 1) [26]: 0 (Herbicidal ratio of 5% or lower (almost no effect)) | g: rapeseed, effect on crop (criteria of Test Example 1) [27]: 0 (Herbicidal ratio of 5% or lower (almost no effect))

CC(=O)CC1CC(O)=C(c2c(C)cc(-n3cncn3)cc2C)C1=O (stereo not drawn) [7-026]
Herbicidal effect grade, A: Echinochloa oryzacola Vasing. [1]: 3 (Herbicidal ratio of 40% or higher and lower than 70%) | Herbicidal effect grade, B: Scirpus juncoides [2]: 0 (Herbicidal ratio of 5% or lower (almost no effect)) | Herbicidal effect grade, C: Monochoria vaginalis [3]: 0 (Herbicidal ratio of 5% or lower (almost no effect)) | Effect grade on crop, a: transplanted rice plant [4]: 0 (Herbicidal ratio of 5% or lower (almost no effect)) | H (Echinochloa crus-galli var. crus-galli) herbicidal effect grade ([5]; Table 24): 0 (Herbicidal ratio of 5% or lower (almost no effect)) | D (Leptochloa chinensis) herbicidal effect grade ([6]; Table 24): 3 (Herbicidal ratio of 40% or higher and lower than 70%) | E herbicidal effect grade ([7]; Table 24): 0 (Herbicidal ratio of 5% or lower (almost no effect)) | b (directly sowed rice plant) effect on crop grade ([8]; Table 24): 0 (Herbicidal ratio of 5% or lower (almost no effect)) | F: Digitaria ciliaris, herbicidal effect (criteria of Test Example 1) [9]: 0 (Herbicidal ratio of 5% or lower (almost no effect)) | G: Setaria viridis, herbicidal effect (criteria of Test Example 1) [10]: 0 (Herbicidal ratio of 5% or lower (almost no effect)) | H: Echinochloa crus-galli var. crus-galli, herbicidal effect (criteria of Test Example 1) [11]: 1 (Herbicidal ratio of 5% or higher and lower than 20%) | I: Avena fatua, herbicidal effect (criteria of Test Example 1) [12]: 0 (Herbicidal ratio of 5% or lower (almost no effect)) | J: Alopecurus myosuroides, herbicidal effect (criteria of Test Example 1) [13]: 1 (Herbicidal ratio of 5% or higher and lower than 20%) | K: Lolium multiflorum Lam., herbicidal effect (criteria of Test Example 1) [14]: 1 (Herbicidal ratio of 5% or higher and lower than 20%) | L: Apera spica-venti, herbicidal effect (criteria of Test Example 1) [15]: 0 (Herbicidal ratio of 5% or lower (almost no effect)) | M: Abutilon theophrasti, herbicidal effect (criteria of Test Example 1) [16]: 0 (Herbicidal ratio of 5% or lower (almost no effect)) | N: Amaranthus retroflexus, herbicidal effect (criteria of Test Example 1) [17]: 0 (Herbicidal ratio of 5% or lower (almost no effect)) | O: Chenopodium album, herbicidal effect (criteria of Test Example 1) [18]: 0 (Herbicidal ratio of 5% or lower (almost no effect)) | P: Stellaria media, herbicidal effect (criteria of Test Example 1) [19]: 0 (Herbicidal ratio of 5% or lower (almost no effect)) | Q: Galium spurium, herbicidal effect (criteria of Test Example 1) [20]: 0 (Herbicidal ratio of 5% or lower (almost no effect)) | R: Veronica persica, herbicidal effect (criteria of Test Example 1) [21]: 0 (Herbicidal ratio of 5% or lower (almost no effect)) | c: corn, effect on crop (criteria of Test Example 1) [22]: 0 (Herbicidal ratio of 5% or lower (almost no effect)) | d: soybean, effect on crop (criteria of Test Example 1) [23]: 0 (Herbicidal ratio of 5% or lower (almost no effect)) | b: directly sowed rice plant, effect on crop (criteria of Test Example 1) [24]: 0 (Herbicidal ratio of 5% or lower (almost no effect)) | e: wheat, effect on crop (criteria of Test Example 1) [25]: 0 (Herbicidal ratio of 5% or lower (almost no effect)) | f: beet, effect on crop (criteria of Test Example 1) [26]: 0 (Herbicidal ratio of 5% or lower (almost no effect)) | g: rapeseed, effect on crop (criteria of Test Example 1) [27]: 0 (Herbicidal ratio of 5% or lower (almost no effect))
